Target: T1, zfP2X4 (ΔP2X4-C) T189V mutant (Danio rerio, UniProt F8W463, N187R/N78K/T189V)
T1 construct: EGFP (N); octa-histidine tag (N); made in house; host or cells: Sf9 insect cells
T1 sequence (F8W463 28-365 N78K/N187R/T189V limits assumed): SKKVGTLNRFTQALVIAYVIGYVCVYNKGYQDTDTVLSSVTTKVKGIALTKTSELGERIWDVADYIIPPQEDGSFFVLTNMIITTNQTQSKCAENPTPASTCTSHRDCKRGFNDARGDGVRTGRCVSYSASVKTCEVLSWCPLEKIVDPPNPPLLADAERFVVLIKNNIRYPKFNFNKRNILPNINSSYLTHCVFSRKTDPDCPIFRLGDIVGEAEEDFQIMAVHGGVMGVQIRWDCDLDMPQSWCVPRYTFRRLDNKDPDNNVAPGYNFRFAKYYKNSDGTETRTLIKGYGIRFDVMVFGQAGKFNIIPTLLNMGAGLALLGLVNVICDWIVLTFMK
Assay: ATR-FTIR difference spectroscopy, residual nucleotide after washing, zfP2X4 T189V
Type: binding, zebrafish
Settings: 10 μM nucleotide, after 15–30 min washing, P-O stretching bands 1250–800 cm−1
Source text: To further investigate the nucleotide binding specificity of zfP2X4, we applied ligand-binding induced difference Attenuated total reflectance (ATR)-Fourier-transform infrared (FTIR) spectroscopy on the WT and conserved threonine mutants (T189S and T189V) of zfP2X4.
Figure 5 ATR-FTIR spectroscopic analysis of zfP2X4 for the ATP and CTP bindings. (A) The reduction of the ligand binding induced difference spectra in the ΔP2X4-C ^zfWT, ^zfT189S and ^zfT189V mutants around the P-O stretching region (1250–800 cm^−1) after washing treatment for 15–30 min. (B) The residual nucleotides after the washing treatment estimated from the ATR-FTIR analysis in (A).
The nucleotide binding affinity of zfP2X4 was analyzed by reduction of the band intensity after washing treatment (Fig. 5). The reduction of the P-O stretching bands between 1250–800 cm^−1 was monitored for ATP (Fig. 5A). […]
The perfusion-induced difference FTIR spectroscopy was performed as similarly to the previous studies. […] ATR-FTIR spectra of the samples were recorded at 25 °C and 2 cm^−1 resolution using a VERTEX 70 spectrometer (Bruker Optics) equipped with a liquid-nitrogen-cooled MCT detector. […] The obtained difference spectra were normalized based on the absolute absorbance of the amide I band at 1653 cm^−1, which well correlates with the quantities of the proteins on the ATR crystals. […]

Nc1ccn([C@@H]2O[C@H](COP(=O)(O)OP(=O)(O)OP(=O)(O)O)[C@@H](O)[C@H]2O)c(=O)n1 [CTP]
residual nucleotide binding after washing: ~ 30%

Nc1ncnc2c1ncn2[C@@H]1O[C@H](COP(=O)(O)OP(=O)(O)OP(=O)(O)O)[C@@H](O)[C@H]1O [ATP, Adenosine 5-triphosphate]
residual nucleotide binding after washing: 10%

From article PMC5362899, “Structural insights into the nucleotide base specificity of P2X receptors” (Scientific Reports, 2017)
